From PubChem BioAssay AID1919006 (Molecular Pharmacology Branch, DTP, NCI, 2023)
pIC50: −log10 of the molar value.

Tested on: 885512-296-R-J2-PDC complex spheroid growth, % test/control
Experiment: Anticancer human tumor 885512-296-R-J2-PDC patient-derived breast carcinoma cell line growth inhibition [AhR]
Details: for pIC50: curve of first compound; for viability, T/C: stronger effect = lower value
Description: Multicellular complex tumor spheroid response to aryl hydrocarbon receptor antagonists in combination with a variety of drugs and investigational agents in selected tumor cell lines
The current study was undertaken to assess response to aryl hydrocarbon receptor antagonists in combination with standard-of-care drugs and investigational agents in solid tumor complex spheroid models. Complex spheroids include a stromal component modeled by human endothelial cells (HUVEC) and fibroblasts modeled by human mesenchymal stem cells (MSCs). The concentration ranges selected for each drug and investigational agent were based upon clinically achievable concentrations if the clinical Cmax of the agent was known.
Compounds. The drugs and investigational agents: BAY 2416964 (NSC825713), GNF351 (NSC835774), CH-223191 (NSC835775), CPI-455 (NSC825282), aza-TdCyd (NSC777586), decitabine (NSC127716), belinostat (NSC758774), entinostat (NSC756642), pevonedistat (NSC761192), tazemetostat (NSC777109), talazoparib (NSC765396), olaparib (NSC753686), selinexor (NSC780203), nedisertib (M3814, NSC802822), bortezomib (NSC756655), venetoclax (NSC766270), doxorubicin (NSC123127), elimusertib (BAY189344, NSC800525), ceralasertib (AZD6738, NSC777638), TAK-243 (NSC785004), alisertib (NSC759677), etoposide (NSC141540), topotecan (NSC609699), eribulin (NSC707389), gemcitabine (NSC613327), carboplatin (NSC241240), cisplatin (NSC119875), and SN-38 (NSC673596) were obtained from the National Cancer Institute (NCI) Developmental Therapeutics Program Chemical Repository (32). The FDA-approved anticancer drug set is available from the Developmental Therapeutics Program at https://dtp.cancer.gov/organization/dscb/obtaining/available plates.htm. […] The stock solutions were prepared in dimethyl sulfoxide (DMSO, Sigma-Aldrich, St. Louis, MO, cat. D2650), except for the platinum compounds which were prepared in saline (Quality Biological, Gaithersburg, MD, cat. 114-055-101), at 800-fold the tested concentration and stored at -70 degrees C prior to their use. All drugs and investigational agents were tested over a range starting from a high concentration at or near the clinical Cmax and decreasing in half-log increments. If the clinical Cmax for an agent had not been determined, the highest concentration tested was 10 microM (Table 1).
Cell Culture. All cells were maintained in an incubator at 37 degrees C and 5% CO2 with 95% humidity. The PDC lines were cultured according to standard operating procedures established by the NCI PDMR (https://pdmr.cancer.gov). Briefly, all PDCs were thawed and cultured in Matrigel-coated flasks prepared with a working solution of 1X Ham's F-12 nutrient mix, without supplementation (Invitrogen, Waltham, MA, cat. 11765054), 100 U/mL penicillin-streptomycin (Invitrogen, cat. 15140122), and 2.5% Matrigel (Corning Inc., Corning, NY, cat. 354248) for the first three passages. All PDCs were cultured in complete DMEM/F-12 media containing advanced DMEM/F-12 (Invitrogen, cat. 12634028), 4.9% defined fetal bovine serum, heat inactivated (HyClone Laboratories Inc., Logan, UT, cat. SH30070.03HI), 389 ng/mL hydrocortisone (Sigma-Aldrich, cat. H4001), 9.7 ng/mL human EGF recombinant protein (Invitrogen, cat. PHG0313), 23.4 microg/mL adenine (Sigma-Aldrich, cat. A2786), 97.3 U/mL penicillin-streptomycin (Invitrogen, cat. 15140122), 1.9 mM L-glutamine (Invitrogen, cat. 25030081), and 9.7 microM Y-27632 dihydrochloride (Tocris Bioscience, Bristol, United Kingdom, cat. 1254). The PDCs were cultured in complete DMEM/F12 media without 10 microM Y-27632 dihydrochloride for at least two passages prior to the screen. The established cell lines NCI-H1341 and […] were cultured in DMEM/F-12, HEPES (Invitrogen, cat. 11330032), 5% defined fetal bovine serum (HyClone Laboratories Inc., cat. SH30070.03), ITS premix universal culture supplement [insulin (5 microg/mL), transferrin (5 microg/mL), and selenious acid (5 ng/mL)] […]

[1] = second compound 0.1 µM, first compound 0.0316 µM
[2] = second compound 0.1 µM, first compound 0.1 µM
[3] = second compound 0.1 µM, first compound 0.316 µM
[4] = second compound 0.1 µM, first compound 1 µM
[5] = second compound 0.1 µM, first compound 3.16 µM
[6] = second compound 0.1 µM, first compound 10 µM
[7] = second compound 0.316 µM, first compound 0.0316 µM
[8] = second compound 0.316 µM, first compound 0.1 µM
[9] = second compound 0.316 µM, first compound 0.316 µM
[10] = second compound 0.316 µM, first compound 1 µM
[11] = second compound 0.316 µM, first compound 3.16 µM
[12] = second compound 0.316 µM, first compound 10 µM
[13] = second compound 1 µM, first compound 0.0316 µM
[14] = second compound 1 µM, first compound 0.1 µM
[15] = second compound 1 µM, first compound 0.316 µM
[16] = second compound 1 µM, first compound 1 µM
[17] = second compound 1 µM, first compound 3.16 µM
[18] = second compound 1 µM, first compound 10 µM
[19] = second compound 3.16 µM, first compound 0.0316 µM
[20] = second compound 3.16 µM, first compound 0.1 µM
[21] = second compound 3.16 µM, first compound 0.316 µM
[22] = second compound 3.16 µM, first compound 1 µM
[23] = second compound 3.16 µM, first compound 3.16 µM
[24] = second compound 3.16 µM, first compound 10 µM
[25] = second compound 10 µM, first compound 0.0316 µM
[26] = second compound 10 µM, first compound 0.1 µM
[27] = second compound 10 µM, first compound 0.316 µM
[28] = second compound 10 µM, first compound 1 µM
[29] = second compound 10 µM, first compound 3.16 µM
[30] = second compound 10 µM, first compound 10 µM
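Note: spheroids exposed to compounds for seven days.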

pIC50 (second compound 0.1 µM)	pIC50 (second compound 0.316 µM)	pIC50 (second compound 1 µM)	pIC50 (second compound 3.16 µM)	pIC50 (second compound 10 µM)	SMILES	viability, T/C [1]	viability, T/C [2]	viability, T/C [3]	viability, T/C [4]	viability, T/C [5]	viability, T/C [6]	viability, T/C [7]	viability, T/C [8]	viability, T/C [9]	viability, T/C [10]	viability, T/C [11]	viability, T/C [12]	viability, T/C [13]	viability, T/C [14]	viability, T/C [15]	other results
> 7.50	> 7.50	> 7.50	> 7.50	> 7.50	COc1cccc2c1C(=O)c1c(O)c3c(c(O)c1C2=O)CC(O)(C(=O)CO)CC3OC1CC(N)C(O)C(C)O1 (stereo not given) + CC(CO)NC(=O)c1cc(-c2ccc(Cl)cc2)nn(-c2cnn(C)c2)c1=O	26.3%	15.5%	6.77%	0.48%	0.93%	0.78%	21.1%	14.9%	7.09%	0.26%	1.12%	0.78%	24.6%	14.6%	6.76%	viability, T/C [16]: 0.2%; viability, T/C [17]: 1.11%; viability, T/C [18]: 1.04%; viability, T/C [19]: 21.3%; viability, T/C [20]: 21.2%; viability, T/C [21]: 3.93%; viability, T/C [22]: 0.22%; viability, T/C [23]: 0.98%; viability, T/C [24]: 0.67%; viability, T/C [25]: 15.4%; viability, T/C [26]: 19.3%; viability, T/C [27]: 3.22%; viability, T/C [28]: 0.46%; viability, T/C [29]: 0.54%; viability, T/C [30]: 0.83%
5.77	5.74	5.81	5.94	6.17	CC1COCCN1c1cc(C2(S(C)(=N)=O)CC2)nc(-c2ccnc3[nH]ccc23)n1 (stereo not given) + CC(CO)NC(=O)c1cc(-c2ccc(Cl)cc2)nn(-c2cnn(C)c2)c1=O	102%	96.4%	87%	76%	19.1%	5.46%	95.1%	102%	94.2%	84.4%	17.1%	4.07%	100%	97%	99%	viability, T/C [16]: 70.3%; viability, T/C [17]: 16.7%; viability, T/C [18]: 5.36%; viability, T/C [19]: 89.4%; viability, T/C [20]: 83.5%; viability, T/C [21]: 82.8%; viability, T/C [22]: 55.1%; viability, T/C [23]: 11.1%; viability, T/C [24]: 4.04%; viability, T/C [25]: 96.9%; viability, T/C [26]: 95.3%; viability, T/C [27]: 72.6%; viability, T/C [28]: 38.3%; viability, T/C [29]: 11.3%; viability, T/C [30]: 4.98%
